We go through 15 compounds from patent US20250179022A1, “COMPOUND USED AS TYK2 INHIBITOR, PREPARATION METHOD THEREFOR, AND PHARMACEUTICAL USE THEREOF” (SHANGHAI ZHIGEN PHARMACEUTICAL & TECHNOLOGY CO. LTD., priority 2022, published 2025).

One series concerns the target T1, TYK2 (Homo sapiens, UniProt P29597, E957D).
T1 construct: host or cells: Ba/F3 (murine B lymphocytes)
Description: TYK2 kinase activity inhibition assay (Ba/F3-FL-TYK2-E957D cell proliferation, CellTiter-Glo). Conditions: 72 h. Format: cell-based. As for the experimental part:
The TYK2 kinase gene was introduced into wild-type murine-derived B lymphocytes (BaF3) to construct the Ba/F3-FL-TYK2-E957D stable cell line.
In this experiment, the inhibitory effect of the compounds on the proliferation of Ba/F3-FL-TYK2-E957D cells were tested, apoptosis was detected, and the IC50 value was calculated. The inhibitory activity of the compounds against TYK2 kinase was evaluated based on the IC50 value.
The tested compounds, powder and stored at room temperature, were prepared into 10 mM stock solution with DMSO and stored at −20° C. away from light for use.
Compounds were prepared into dilute solutions which was 1000 times of the final concentration. The compound was prepared into 20-times of the final concentration by diluting the compound with culture medium. 2 ul of 1000-times compound was added to per well to 98 ul of culture medium.
Cells (provided by Sundia Pharmaceutical Technology (Shanghai) Co., Ltd.) were resuspended and counted using an automated cell counter. The cell suspension was diluted to the desired density based on BaF3 seeding density of 2000 cells per well. Each well was plated with 95 ul of cells and incubated at 37° C. for stable equilibrium. 5 ul of 20-times compound was added to each well, with the wells to which the same volume of DMSO was added as a control.
The cell plate was equilibrated to room temperature. 40 ul CellTiter-Glo® Reagent was added to each well, shaken for 2 minutes and allowed to stand for 10 minutes. Detected with SpectraMax Paradigm.
• (1) IC50 was calculated using GraphPad Prism 5. • (2) % Inh=(Max signal−Compound signal)/(Max signal−Min signal)×100. • (3) Max signal was the positive control well with only the same volume of DMSO as the compound. • (4) Min signal was the negative control well with only the culture medium.

The test system of series [1] is IFN-α-induced STAT phosphorylation. Nature of the series: IFN-α-induced STAT phosphorylation in human whole blood. The following applies: human whole blood, 20 ng/ml IFN-α, pSTAT5 in CD3-positive cells; read-out: IC50, IFN-α inflammatory pathway (IFN-α-induced STAT phosphorylation). Format: cell-based. An excerpt:
The cytokine receptor attached to TYK2 mediates the signaling of type 1 interferon (IFN-α), which has been identified as the most important inflammatory factor of the autoimmune system. Human whole blood is induced with IFN-α, and TYK2 from lymphocytes in whole blood triggered STAT phosphorylation, which mediated subsequent inflammatory signaling. Therefore, TYK2 inhibitors have an inhibitory effect on IFN-α signaling, and the stronger the TYK2 inhibitory activity, the lower the level of STAT phosphorylation, and the stronger the corresponding anti-inflammatory effect.
In this experiment, the ability of the compounds to inhibit IFN-α-induced STAT phosphorylation in human whole blood were tested, and the IC50 values were calculated. The anti-inflammatory activity of the compounds was evaluated at the tissue level and evaluation of the inhibitory activity of compounds on the IFN-α inflammatory pathway based on the IC50 value.
The tested compound, powder and stored at room temperature, prepared into 10 mM stock solution with DMSO and stored at −80° C. in the refrigerator.
1× Fix/Lysis solution preparation: 5× Fix/Lysis and ddH2O were diluted according to 1:4 and preheated in 37° C. incubator, waiting for use.
Flow cytometric staining buffer preparation: 1 g of bovine serum albumin (BSA) and 1 mL of EDTA (0.5 M) solution were added to 500 mL of phosphate buffer solution (PBS) and stored at 4° C. in the refrigerator.
Compound dilution solution: 0.5 g of bovine serum albumin (BSA) was added to 500 mL of phosphate buffer solution (PBS), and stored at 4° C. in the refrigerator.
50 μg/mL IFN-alpha was diluted to 400 ng/mL with Compound Diluent and set aside.
67.5 μL of human whole blood was added to a 96-well plate using a 300 μL electric volley gun. 3.5 μL of prepared test compound was added, mixed well and placed in the cell culture incubator. After 60 min incubation, 400 ng/mL IFN-α (Biolegend 592702, final concentration 20 ng/ml) was added. The obtained was mixed well and placed in the cell culture incubator to continue incubation for 15 min.
After cytokine stimulation, 5 ul of PE-CD3 (BD 555333) antibody was added to each well, mixed and incubation was continued at 4° C. in the refrigerator. At the end, whole blood was transferred to a 96-well deep-well plate using a volley gun, pre-warmed 1× Fix/Lysis solution was added, and cells were lysed and fixed for 12 minutes at 37° C. in an incubator. After being washed, 400 μL of Perm III solution was added, vortexed and incubated on ice for 30 minutes. Cells were then stained by 100 μL of APC-pSTAT5 (1:100) antibody for 50 min at room temperature. This was followed by flow-through instrumentation. The expression of pSTAT5 was quantified by median fluorescence intensity after gating the CD3-positive signaling cluster.

The nature of series [2]: In vivo pharmacokinetic experiments in Beagle dogs (oral). The following applies: for Cmax / MRT / half-life: male, dog, plasma. As for the experimental part: Experimental Methods: Healthy male Beagle dogs were randomly grouped into 3 […] in each group, and were given the test compounds orally. Before the gavage experiment, the dogs were fasted for 12 h, drank water freely, and were uniformly fed for 4 h after the administration of the drug. 0.083, 0.25, 0.5, 1.0, 2.0, 4.0, 6.0, 8.0, 10 and 24 h after administration; about 600 μL of blood was collected from the forelimb or hindlimb at the above set time points and placed in EDTA-K2 tubes, and the whole blood was collected and stored temporarily in an ice-water bath, and then centrifuged at least 3500 rpm for 10 min within 30 min, and the plasma was separated and frozen in a −70° C. refrigerator for testing.

The nature of series [3]: In vivo pharmacokinetic experiment in rats (oral). Also on record: species or system SD rats. The following applies: 20 mg/kg. As for the experimental part:
Experimental method: Healthy male SD rats were randomly grouped into 3 rats in each group and given the test compound orally. The rats were fasted for 12 h before the gavage experiment, and drank water freely, and were fed uniformly for 4 h after the administration of the compounds. Before (0 h) and 0.25, 0.5, 1.0, 2.0, 4.0, 6.0, 8.0 and 24 h after the administration of the test compounds, 0.2 mL of blood was collected from the jugular vein at the above set time points and placed in EDTA-K2 tubes, and the whole blood was collected and stored temporarily in an ice-water bath, and then centrifuged at 11,000 rpm for 5 min within 30 min, the plasma was separated, and frozen at −70° C. in a refrigerator for testing.

T1 sequence (P29597 whole entry E957D): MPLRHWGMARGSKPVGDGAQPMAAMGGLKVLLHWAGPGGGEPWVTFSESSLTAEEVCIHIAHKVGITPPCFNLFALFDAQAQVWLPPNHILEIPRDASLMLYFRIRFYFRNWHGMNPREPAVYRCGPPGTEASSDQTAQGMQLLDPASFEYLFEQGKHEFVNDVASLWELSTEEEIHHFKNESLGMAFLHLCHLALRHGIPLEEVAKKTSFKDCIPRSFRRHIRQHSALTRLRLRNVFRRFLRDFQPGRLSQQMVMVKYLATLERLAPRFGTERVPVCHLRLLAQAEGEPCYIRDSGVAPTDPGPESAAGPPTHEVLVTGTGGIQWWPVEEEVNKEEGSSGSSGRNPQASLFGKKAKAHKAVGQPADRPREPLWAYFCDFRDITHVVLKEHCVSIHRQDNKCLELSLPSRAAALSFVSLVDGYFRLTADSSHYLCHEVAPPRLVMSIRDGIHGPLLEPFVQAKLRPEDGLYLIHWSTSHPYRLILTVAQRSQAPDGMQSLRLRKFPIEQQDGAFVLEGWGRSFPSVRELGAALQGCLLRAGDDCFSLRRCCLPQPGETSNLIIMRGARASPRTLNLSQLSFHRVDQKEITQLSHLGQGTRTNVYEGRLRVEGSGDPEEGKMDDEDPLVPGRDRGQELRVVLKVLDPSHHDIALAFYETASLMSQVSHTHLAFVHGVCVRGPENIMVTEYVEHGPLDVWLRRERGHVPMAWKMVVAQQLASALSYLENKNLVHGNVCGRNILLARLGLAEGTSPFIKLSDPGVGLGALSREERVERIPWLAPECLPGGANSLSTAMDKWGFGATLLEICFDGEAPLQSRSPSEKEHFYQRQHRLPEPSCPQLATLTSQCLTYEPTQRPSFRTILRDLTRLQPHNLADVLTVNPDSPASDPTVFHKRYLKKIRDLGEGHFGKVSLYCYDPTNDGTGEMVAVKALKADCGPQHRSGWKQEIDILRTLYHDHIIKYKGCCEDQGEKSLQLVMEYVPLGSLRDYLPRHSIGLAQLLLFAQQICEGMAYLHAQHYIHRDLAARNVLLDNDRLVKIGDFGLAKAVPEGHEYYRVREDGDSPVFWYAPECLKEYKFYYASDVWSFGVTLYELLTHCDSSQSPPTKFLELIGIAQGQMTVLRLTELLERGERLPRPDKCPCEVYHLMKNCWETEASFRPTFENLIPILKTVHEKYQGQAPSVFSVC

`[2H]C([2H])([2H])NC(=O)c1nnc(NC(=O)C2CC2)cc1Nc1ncccc1S(C)(=O)=NC` (stereo not shown) [Example 2, 6-(cyclopropylcarboxamido)-4-((3-(N,S-dimethylsulfoximino)pyridin-2-yl)amino)-N-(methyl-d3)pyridazine-3-carboxamide] came in with an IC50 at TYK2 of 2.4 nM.

On to `CN=S(C)(=O)c1ccc(N)nc1Nc1cc(NC(=O)C2CC2)nnc1C(=O)NC` (stereo not shown) [Example 7, 4-((6-amino-3-(N,S-dimethylsulfoximino)pyridin-2-yl)amino)-6-(cyclopropylcarboxamido)-N-methylpyridazine-3-carboxamide], for which the IC50 in series [1] worked out at 22.1 nM.

Compound `CN=S(C)(=O)c1cc(Br)cnc1Nc1cc(NC(=O)C2CC2)nnc1C(=O)NC` (stereo not shown) [Example 13, 4-((5-bromo-3-(N,S-dimethylsulfoximino)pyridin-2-yl)amino)-6-(cyclopropylcarboxamido)-N-methylpyridazine-3-carboxamide] showed an IC50 against TYK2 of 3.9 nM.

Consider `CN=S(C)(=O)c1cc(OC)cnc1Nc1cc(NC(=O)C2CC2)nnc1C(=O)NC` (stereo not shown) [Example 14, 6-(cyclopropylamido)-4-((3-(N,S-dimethylsulfoximino)-5-methoxypyridin-2-yl)amino)-N-methylpyridazine-3-carboxamide], for which it took 3.7 nM to reach half-maximal inhibition against TYK2 (IC50).

Consider `CN=S(C)(=O)c1cc(OCCCOC)cnc1Nc1cc(NC(=O)C2CC2)nnc1C(=O)NC` (stereo not shown) [Example 16, 6-(cyclopropylcarboxamido)-4-((3-(N,S-dimethylsulfoximino)-5-(3-methoxypropoxy)pyridin-2-yl)amino)-N-methylpyridazine-3-carboxamide], for which the IC50 on TYK2 turned out to be 3.5 nM.

In series [2] (2 mg/kg), `[2H]C([2H])([2H])NC(=O)c1nnc(NC(=O)C2CC2)cc1Nc1nc(N)c(Br)cc1[S@@](C)(=O)=NC` [Example 30, (R)-4-((6-amino-5-bromo-3-(N,S-dimethylsulfoximino)pyridin-2-yl)amino)-6-(cyclopropylformyl)-N-(methyl-d3)pyridazine-3-carboxamide] had an AUC of 8454 ngh/mL, a Cmax of 625 ng/mL, an MRT of 11.8 h and a half-life of 8.61 h.

On to `CN=S(C)(=O)c1cc2cc[nH]c2nc1Nc1cc(NC(=O)C2CC2)nnc1C(=O)NC` (stereo not shown) [Example 31, 6-(cyclopropylcarboxamido)-4-((5-(N,S-dimethylsulfoximino)-1H-pyrrolo[2,3-b]pyridin-6-yl)amino)-N-methylpyridazine-3-carboxamide], for which half-maximal inhibition at TYK2 (IC50) required 1.1 nM.

Turning to `CN=S(C)(=O)c1cc2c(Cl)c(Cl)[nH]c2nc1Nc1cc(NC(=O)C2CC2)nnc1C(=O)NC` (stereo not shown) [Example 33, 6-(cyclopropylamido)-4-((2,3-dichloro-5-(N,S-dimethylsulfoximino)-1H-pyrrolo[2,3-b]pyridin-6-yl)amino)-N-methylpyridazine-3-carboxamide], the IC50 against TYK2 stood at 1.2 nM.

For the compound `[2H]C([2H])([2H])N=[S@](C)(=O)c1cc(Cl)c(N)nc1Nc1cc(NC(=O)C2CC2)nnc1C(=O)NC([2H])([2H])[2H]` [Example 40, (R)-4-((6-amino-5-chloro-3-(S-methyl-N-(methyl-d3)sulfonylimino)pyridin-2-yl)amino)-6-(cyclopropylcarboxamide)-N-(methyl-d3)pyridazine-3-carboxamide], in series [3], the AUC was 22029 ngh/mL and the F is 109%. Also, in series [3] (male, SD, rat, plasma), the concentration peaked (Cmax) at 2950 ng/mL, the MRT was determined as 4.7 h and the half-life is 2.65 h. In series [2] (10 mg/kg), this compound returned an AUC of 79882 ngh/mL, an F of 136.6%, a Cmax of 4850 ng/mL and an MRT of 12.7 h. In series [2] (10 mg/kg), this compound had a half-life of 9.28 h. At TYK2, the IC50 worked out at 0.4 nM.

As for `[2H]C([2H])([2H])N=[S@](C)(=O)c1cc(Br)c(N)nc1Nc1cc(NC(=O)C2CC2)nnc1C(=O)NC([2H])([2H])[2H]` [Example 41, (R)-4-((6-amino-5-bromo-3-(S-methyl-N-(methyl-d3)sulfonylimino)pyridin-2-yl)amino)-6-(cyclopropylcarboxamide)-N-(methyl-d3)pyridazine-3-carboxamide], the IC50 at TYK2 came to 0.4 nM.

On TYK2, `[2H]C([2H])([2H])N=[S@](C)(=O)c1cc(I)c(N)nc1Nc1cc(NC(=O)C2CC2)nnc1C(=O)NC([2H])([2H])[2H]` [Example 42, (R)-4-((6-amino-5-iodo-3-(S-methyl-N-(methyl-d3)sulfonylimino)pyridin-2-yl)amino)-6-(cyclopropylcarboxamide)-N-(methyl-d3)pyridazine-3-carboxamide] came in with an IC50 of 0.4 nM.

Compound `[2H]C([2H])([2H])N=[S@](C)(=O)c1cc(C2CC2)c(N)nc1Nc1cc(NC(=O)C2CC2)nnc1C(=O)NC([2H])([2H])[2H]` [Example 43, (R)-4-((6-amino-5-cyclopropyl-3-(S-methyl-N-(methyl-d3)sulfonylimino)pyridin-2-yl)amino)-6-(cyclopropylcarboxamide)-N-(methyl-d3)pyridazine-3-carboxamide] showed an IC50 on TYK2 of 1.1 nM.

At TYK2, `[2H]C([2H])([2H])N=[S@](C)(=O)c1cc(C=C)c(N)nc1Nc1cc(NC(=O)C2CC2)nnc1C(=O)NC([2H])([2H])[2H]` [Example 44, (R)-4-((6-amino-3-(S-methyl-N-(methyl-d3)sulfonylimino)-5-vinylpyridin-2-yl)amino)-6-(cyclopropylcarboxamide)-N-(methyl-d3)pyridazine-3-carboxamide] registered an IC50 of 0.3 nM.

Turning to `[2H]C([2H])([2H])N=[S@](C)(=O)c1cc(C#CC)c(N)nc1Nc1cc(NC(=O)C2CC2)nnc1C(=O)NC([2H])([2H])[2H]` [Example 45, (R)-4-((6-amino-3-(S-methyl-N-(methyl-d3)sulfonylimino)-5-(propynyl-1-yl)pyridin-2-yl)amino)-6-(cyclopropylcarboxamide)-N-(methyl-d3)pyridazine-3-carboxamide], 0.1 nM corresponded to half-maximal inhibition against TYK2 (IC50).

At TYK2, `[2H]C([2H])([2H])N=[S@](C)(=O)c1cc(C#CC2CC2)c(N)nc1Nc1cc(NC(=O)C2CC2)nnc1C(=O)NC([2H])([2H])[2H]` [Example 46] came in with an IC50 of 0.1 nM.
